From patent publication US12559464B2, “Quinazolinone dione compounds and uses thereof” (Edgewise Therapeutics, Inc., priority 2023, dated 2026)
Blank lines part the entries; values can stand above or below the compound they belong to.

Tests used:
[1] = system: myosin ATPase, Porcine Atria myofibrils; test: Myofibril ATPase assay, porcine atria myofibrils; assay type: biochemical; conditions: concentration required to reduce myosin ATP-ase activity by 25%; Porcine Atria Prep pCa 25 GEOM_MEAN
[2] = target: T1, myosin ATPase, Porcine Ventricle myofibrils (Sus scrofa, UniProt P79293); test: Myofibril ATPase assay, porcine ventricle myofibrils; assay type: biochemical, porcine (Yucatan minipigs); conditions: concentration required to reduce myosin ATP-ase activity by 25%; Porcine Ventricle Prep pCa 25 GEOM_MEAN
T1 construct: Myofibrils from porcine cardiac muscle was isolated from the left ventricle of Yucatan minipigs; tissue Exemplar Genetics; host or cells: left ventricle of Yucatan minipigs, myofibrils
T1 sequence (P79293 whole entry): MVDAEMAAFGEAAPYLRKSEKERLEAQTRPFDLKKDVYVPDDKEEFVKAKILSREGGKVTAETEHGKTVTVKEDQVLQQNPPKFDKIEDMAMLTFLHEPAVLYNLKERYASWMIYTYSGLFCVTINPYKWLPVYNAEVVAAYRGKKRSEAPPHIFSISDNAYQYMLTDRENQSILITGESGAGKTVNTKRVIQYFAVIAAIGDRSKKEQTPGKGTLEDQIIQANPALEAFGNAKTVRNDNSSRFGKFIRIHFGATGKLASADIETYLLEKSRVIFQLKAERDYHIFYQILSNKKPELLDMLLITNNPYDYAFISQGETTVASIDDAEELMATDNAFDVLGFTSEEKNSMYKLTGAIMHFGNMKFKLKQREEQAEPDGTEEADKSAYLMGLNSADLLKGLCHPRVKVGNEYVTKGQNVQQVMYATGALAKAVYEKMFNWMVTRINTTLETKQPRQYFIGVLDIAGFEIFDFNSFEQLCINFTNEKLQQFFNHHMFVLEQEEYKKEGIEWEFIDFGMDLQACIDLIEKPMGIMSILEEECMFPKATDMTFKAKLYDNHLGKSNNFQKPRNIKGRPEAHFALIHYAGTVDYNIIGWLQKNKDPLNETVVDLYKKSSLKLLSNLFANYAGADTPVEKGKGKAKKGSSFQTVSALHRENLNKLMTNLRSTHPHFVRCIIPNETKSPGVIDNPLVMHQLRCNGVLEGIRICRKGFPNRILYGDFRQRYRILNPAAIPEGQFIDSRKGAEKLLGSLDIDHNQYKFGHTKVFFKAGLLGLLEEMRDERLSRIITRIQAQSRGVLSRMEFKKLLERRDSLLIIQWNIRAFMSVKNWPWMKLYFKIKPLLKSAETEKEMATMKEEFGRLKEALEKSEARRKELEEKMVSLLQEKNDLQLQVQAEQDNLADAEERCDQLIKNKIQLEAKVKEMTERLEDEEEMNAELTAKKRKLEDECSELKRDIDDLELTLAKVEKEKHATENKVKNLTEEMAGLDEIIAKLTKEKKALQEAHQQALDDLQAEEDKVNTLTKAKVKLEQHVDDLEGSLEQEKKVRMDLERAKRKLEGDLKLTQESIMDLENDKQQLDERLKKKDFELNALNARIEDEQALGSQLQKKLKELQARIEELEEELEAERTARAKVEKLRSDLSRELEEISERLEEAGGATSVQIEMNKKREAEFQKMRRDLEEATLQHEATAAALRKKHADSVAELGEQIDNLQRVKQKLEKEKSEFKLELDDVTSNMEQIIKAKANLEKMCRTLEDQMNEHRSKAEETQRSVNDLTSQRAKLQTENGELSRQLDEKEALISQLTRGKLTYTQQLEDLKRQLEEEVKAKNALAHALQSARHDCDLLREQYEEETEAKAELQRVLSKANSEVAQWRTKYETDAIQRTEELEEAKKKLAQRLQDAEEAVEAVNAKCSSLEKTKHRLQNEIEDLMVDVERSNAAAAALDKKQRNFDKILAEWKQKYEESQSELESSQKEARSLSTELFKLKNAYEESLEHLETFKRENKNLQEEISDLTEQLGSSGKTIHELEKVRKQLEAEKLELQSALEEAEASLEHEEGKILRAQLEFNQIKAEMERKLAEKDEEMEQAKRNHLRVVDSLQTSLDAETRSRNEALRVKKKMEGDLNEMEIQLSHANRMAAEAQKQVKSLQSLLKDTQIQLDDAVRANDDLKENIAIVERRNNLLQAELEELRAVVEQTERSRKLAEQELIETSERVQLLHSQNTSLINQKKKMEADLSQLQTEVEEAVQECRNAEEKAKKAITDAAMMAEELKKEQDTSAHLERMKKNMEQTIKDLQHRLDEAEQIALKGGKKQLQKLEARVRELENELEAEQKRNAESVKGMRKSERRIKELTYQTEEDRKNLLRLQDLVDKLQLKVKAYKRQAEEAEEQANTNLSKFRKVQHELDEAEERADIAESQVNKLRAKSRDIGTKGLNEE
Experimental: (§1) Myofibril ATPase assays are known in the art to be useful in evaluating small molecules for the treatment of HCM and other cardiac indications. Myosin ATPase activity is assessed by using a coupled reaction system, in which ADP generated by the myosin ATPase function is coupled to the disappearance of NADH through the pyruvate kinase/lactate dehydrogenase (PK-LDH) system. ATPase activity produces ADP, which is used as a substrate for PK to produce pyruvate and regenerate ATP. The pyruvate is then used as a substrate by LDH to oxidize NADH to NAD+. The rate of the reaction is monitored through the time-dependent disappearance of NADH using absorbance at 340 nm, which, when the couple system is in stoichiometric excess, is directly correlated to the ATPase activity of the myosin. Inhibition of ATPase activity by the assayed compounds is indicated by a reduced rate of NADH loss, relative to vehicle-treated controls, over the experimental time window. Porcine Ventricle are the primary sources of myofibril material.
(§2) Materials: The following stock solutions and reagents were used in the Myofibril ATPase Assay: Stock Solutions; PIPES, 200 mM and 120 mM in H2O, pH 7.0; MgCl2 in H2O, 200 mM; PM12 Buffer, 10×: 120 mM PIPES (from 200 mM stock), 20 mM MgCl2 (from 200 mM stock); PBS Buffer, 1X: 135 mM NaCl, […], 10 mM Na(PO4)2, 1.8 mM K2(PO4), pH 7.4; EGTA in H2O, 250 mM; CaCl2) in H2O, 500 mM; DTT in H2O, 1 M; BSA in H2O, 10 mg/mL; ATP in 1×PBS, 50 mM; NADH in 1X PM12 and 1 mM DTT, 26 mM; PEP in 1X PM12, 78 mM, pH 7.0.
(§3) Stock Solutions of pCa buffer. Combine PIPES, CaCl2, and EGTA solutions with water. Adjust pH to 7.0 and bring final volume to 100 mL.
(§4) Buffer A & Buffer B. Prepare buffers A and B according to the table below.
(§5) Myofibril ATPase Assay Procedure: BSA, ATP, NADH, PEP, and DTT solutions were thawed at room temperature, then transferred to ice. Pellet-frozen myofibrils were transferred with approximately twice the required volume into a sufficiently large tube and capped. Myofibrils were thawed by rolling in a water bath for approximately 15 min at room temperature and cooled on ice. Buffers A and B were prepared by adjusting volumes as necessary for required number of wells and stored on ice. 0.5 μL of the compounds to be assayed were added into wells. 25 μL of Buffer A was dispensed into the wells, followed by 25 μL of Buffer B. The wells were measured for absorbance at 340 nm, using a kinetic protocol in which the wells are read every 1.5-2 min for 75 min. Assay data analysis was performed using a python script that filtered the raw data to retain those points falling between a starting and ending time and between a maximum and minimum absorbance, then used the filtered time-domain 340 nm absorbance data in each well to calculate a slope via linear regression analysis in units of mAU/min. Compound slopes were normalized between 100% and 0% activity, where 100% represented the slope of wells containing only compound vehicle, and fit to a 4-parameter logistic model. In addition to the fit parameters, the EC25% values were calculated, relative to the 100% normalized value. Additionally, the Y125 values were calculated for compounds that increased myosin ATP-ase activity. Fit parameters, calculated effective concentrations, filtered raw data, and calculated slopes were exported, in addition to compound-specific graphs of normalized ATPase activity versus concentration in μM. Each value reported in Table 8 is either a Y75 value or a Y125 value. Values without pound sign, #, are Y75 values, which reflect the concentration required to reduce myosin ATP-ase activity by 25% (e.g., Y-axis activity value is 75% of initial value), relative to myosin ATP-ase activity in the absence of exogenous compound. […]

[3] = system: myosin ATPase, Rabbit Psoas myofibrils; test: Myofibril ATPase assay, rabbit psoas (skeletal) myofibrils; assay type: biochemical; conditions: concentration required to reduce myosin ATP-ase activity by 25%; Rabbit Psoas Prep pCa 25 GEOM_MEAN
Experimental: [Worded in the source for another species; this species is reported under the same test.] as §1, §2, §3, §4, §5

SMILES: Cc1c(F)ccc2[nH]c(=O)n(CC(=O)N[C@H](C)c3ccc(C#N)cn3)c(=O)c12 (single isomer, unassigned) [Compound 3009]
Porcine Atria EC25 (Y75 value) [1]: 0.10 µM
Porcine Ventricle EC25 (Y75 value) [2]: 0.25 µM
Rabbit Psoas EC25 (Y75 value) [3]: 0.06 µM

SMILES: CC(NC(=O)Cn1c(=O)[nH]c2ccccc2c1=O)c1ccccc1Cl (stereo not drawn) [Compound 523, N-(1-(2-chlorophenyl)ethyl)-2-(2,4-dioxo-1,4-dihydroquinazolin-3(2H)-yl)acetamide]
Porcine Atria EC25 (Y75 value) [1]: 7.86 µM
Porcine Ventricle EC25 (Y75 value) [2]: 100 µM
Rabbit Psoas EC25 (Y75 value) [3]: 16.05 µM

SMILES: CCC(NC(=O)Cn1c(=O)[nH]c2ccccc2c1=O)c1ccc(F)cc1F (stereo not drawn) [Compound 71, N-(1-(2,4-difluorophenyl)propyl)-2-(2,4-dioxo-1,4-dihydroquinazolin-3(2H)-yl)acetamide]
Porcine Atria EC25 (Y75 value) [1]: 12.67 µM
Porcine Ventricle EC25 (Y75 value) [2]: 53.2 µM
Rabbit Psoas EC25 (Y75 value) [3]: 3.86 µM

SMILES: O=C(Cn1c(=O)[nH]c2ccccc2c1=O)NCc1ccc(F)cc1F [Compound 5009, N-(2,4-difluorobenzyl)-2-(2,4-dioxo-1,4-dihydroquinazolin-3(2H)-yl)acetamide]
Porcine Atria EC25 (Y75 value) [1]: 100 µM
Porcine Ventricle EC25 (Y75 value) [2]: 100 µM
Rabbit Psoas EC25 (Y75 value) [3]: 100 µM

SMILES: C[C@@H](NC(=O)C1(n2c(=O)[nH]c3ccc(F)c(F)c3c2=O)CC1)c1ncc(C#N)cc1F (single isomer, unassigned) [Compound 3011]
Porcine Atria EC25 (Y75 value) [1]: 0.42 µM
Porcine Ventricle EC25 (Y75 value) [2]: 13.07 µM
Rabbit Psoas EC25 (Y75 value) [3]: 4.77 µM

SMILES: CC(NC(=O)Cn1c(=O)[nH]c2ccccc2c1=O)c1cnn(C)c1 (stereo not drawn) [Compound 603, 2-(2,4-dioxo-1,4-dihydroquinazolin-3(2H)-yl)-N-(1-(1-methyl-1H-pyrazol-4-yl)ethyl)acetamide]
Porcine Atria EC25 (Y75 value) [1]: 100 µM
Porcine Ventricle EC25 (Y75 value) [2]: 100 µM
Rabbit Psoas EC25 (Y75 value) [3]: 100 µM

Next, values leading:

Porcine Atria EC25 (Y75 value) [1]: 100 µM
Porcine Ventricle EC25 (Y75 value) [2]: 100 µM
Rabbit Psoas EC25 (Y75 value) [3]: 100 µM
SMILES: CC(NC(=O)Cn1c(=O)[nH]c2ccccc2c1=O)c1cc(F)ccc1N(C)C (stereo not drawn) [Compound 518, N-(1-(2-(dimethylamino)-5-fluorophenyl)ethyl)-2-(2,4-dioxo-1,4-dihydroquinazolin-3(2H)-yl)acetamide]

Porcine Atria EC25 (Y75 value) [1]: 0.048 µM
Porcine Ventricle EC25 (Y75 value) [2]: 0.119 µM
Rabbit Psoas EC25 (Y75 value) [3]: 0.043 µM
SMILES: Cc1cc(C#N)cnc1[C@@H](C)NC(=O)Cn1c(=O)[nH]c2ccc(F)c(F)c2c1=O (single isomer, unassigned) [Compound 13]

Porcine Atria EC25 (Y75 value) [1]: 2.407 µM
Porcine Ventricle EC25 (Y75 value) [2]: 31.6 µM
Rabbit Psoas EC25 (Y75 value) [3]: 0.494 µM
SMILES: CC(NC(=O)Cn1c(=O)[nH]c2ccccc2c1=O)c1ccc(F)cc1F (stereo not drawn) [Compound 169, N-(1-(2,4-difluorophenyl)ethyl)-2-(2,4-dioxo-1,4-dihydroquinazolin-3(2H)-yl)acetamide]

Porcine Atria EC25 (Y75 value) [1]: 100 µM
Porcine Ventricle EC25 (Y75 value) [2]: 100 µM
Rabbit Psoas EC25 (Y75 value) [3]: 100 µM
SMILES: COc1cc2c(cc1OC)C(NC(=O)Cn1c(=O)[nH]c3ccccc3c1=O)CC2 (stereo not drawn) [Compound 703, N-(5,6-dimethoxy-2,3-dihydro-1H-inden-1-yl)-2-(2,4-dioxo-1,4-dihydroquinazolin-3(2H)-yl)acetamide]

Porcine Atria EC25 (Y75 value) [1]: 100 µM
Porcine Ventricle EC25 (Y75 value) [2]: 100 µM
Rabbit Psoas EC25 (Y75 value) [3]: 72.241 µM
SMILES: CC(NC(=O)Cn1c(=O)[nH]c2ccccc2c1=O)c1ccc(F)cn1 (stereo not drawn) [Compound 106, 2-(2,4-dioxo-1,4-dihydroquinazolin-3(2H)-yl)-N-(1-(5-fluoropyridin-2-yl)ethyl)acetamide]
